Laboratory results taken from patent publication US12497394B2, “Fused-cyclic pyrazolone formamide compound and preparation method therefor, pharmaceutical composition and use thereof” (SHANGHAI INSTITUTE OF MATERIA MEDICA, CHINESE ACADEMY OF …, priority 2018, dated 2025).
Values joined by “and” are separate entries in the source; they are usually repeats but may differ in a detail not shown here. Identical values can stand only once. Like-named read-outs stand apart in the source and are kept apart here.

What was measured:
[1] = target: T1, receptor tyrosine kinase AXL (Homo sapiens, UniProt P30530); test: Enzyme activity of receptor tyrosine kinase AXL (ELISA); assay type: biochemical; conditions: read-out: AXL activity Inhibitory rate(%); for inhibition at 0.001 µM: 1 nM; for inhibition at 0.01 µM: 10 nM; for inhibition at 0.1 µM: 100 nM
T1 construct: 50 μL of AXL kinase domain recombinant protein diluted in reaction buffer was added to start the reaction; made in house; host or cells: insect cells (baculovirus expression system)
T1 sequence (P30530 536-807 limits assumed): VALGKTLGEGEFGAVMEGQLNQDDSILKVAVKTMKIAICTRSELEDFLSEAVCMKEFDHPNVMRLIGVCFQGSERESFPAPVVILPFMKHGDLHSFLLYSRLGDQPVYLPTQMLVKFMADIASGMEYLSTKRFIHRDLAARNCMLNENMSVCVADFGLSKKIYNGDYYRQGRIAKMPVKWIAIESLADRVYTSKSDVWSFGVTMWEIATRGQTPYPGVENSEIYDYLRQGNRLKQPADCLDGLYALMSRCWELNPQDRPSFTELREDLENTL
Method: Detection method: Enzyme-linked immunosorbent assay (ELISA)
Tested receptor tyrosine kinase: AXL
The full-wavelength microplate reader for experiment reading was a product of Molecular Device, model: SpectraMax 190; the experiment water was distilled water produced by Sinopharm Group.
Compound preparation: The compounds were centrifuged at 12,000 g for 5 min, and DMSO was added to prepare a 10^−2M stock solution, vortexed evenly and sonicated for 10 min for use, and stored at −40° C. During the test, the compound was diluted from the stock solution to 100 times the tested concentration with DMSO (the DMSO concentration in the system was 1%).
1. […] Discard the liquid from the well. The plate was washed and washed three times with T-PBS (0.1% Tween-20 in potassium-free PBS, 200 μL/well) for 5 minutes each time.
2. 49 μL of ATP solution diluted with reaction buffer (50 mM HEPES pH 7.4, 50 mM MgCl2, 0.5 mM MnCl2, 0.2 mM Na3VO4, 1 mM DTT) was added to each well, and […] of the tested compound was added to each well, and then 50 μL of AXL kinase domain recombinant protein diluted in reaction buffer was added to start the reaction. Two control wells without ATP were added in each experiment. (100 rpm) Reacted in 37° C. shaker for 1 hour. Discard the liquid from the well, and the plate was washed with T-PBS for three times.
3. […] Discard the liquid from the well, and the plate was washed with T-PBS for three times.
4. The horseradish peroxidase-labeled goat anti-mouse second antibody dilution (antibody diluted 1:2000 with BSA 5 mg/mL in T-PBS), 100 μL/well, and reacted in 37° C. shaker for 0.5 hours. Discard the liquid from the well, and the plate was washed with T-PBS for three times.
6. The reaction was quenched with 50 μL/well 2M […], and read at 490 nm using a tunable microplate reader VERSAmax.
The IC50 values were obtained by four-parameter regression analysis using the software supplied with the microplate reader.

[2] = target: receptor tyrosine kinase c-Met (Homo sapiens, UniProt P08581); test: In vitro c-Met kinase inhibitory activity; assay type: biochemical; conditions: two values per compound; for inhibition at 0.001 µM / inhibition at 0.01 µM / inhibition at 0.1 µM: read-out: c-Met Inhibitory rate (%)
Text: Experimental Example 3: Study of In Vitro c-Met Kinase Inhibitory Activity
Since the screening results of 369 kinase profiles of compound DC621044 has shown that the compound has a certain inhibitory activity on c-Met. We further screened some compounds for their inhibitory activity on c-Met kinase.

[3] = system: BaF3/TEL-AXL cells; test: Proliferation of BaF3/TEL-AXL cells; assay type: cell-based; conditions: for inhibition at 0.001 µM / inhibition at 0.01 µM / inhibition at 0.1 µM: BaF3/TEL-AXL
Text: Experimental Example 4: Effect of the Compound on the Proliferation Effect of BaF3/TEL-AXL Cells
Based on the above-mentioned enzyme activity research results, we further explored the effect of the compound on cell proliferation mediated by receptor tyrosine kinase AXL.

[4] = 1 nM, two values per compound, 0.001 µM
[5] = 10 nM, two values per compound, 0.01 µM
[6] = 100 nM, two values per compound, 0.1 µM
[7] = 1 nM, two values per compound, read-out: BaF3/TEL-AXL proliferation Inhibitory rate (%)
[8] = 10 nM, two values per compound, read-out: BaF3/TEL-AXL proliferation Inhibitory rate (%)
[9] = 100 nM, two values per compound, read-out: BaF3/TEL-AXL proliferation Inhibitory rate (%)

Chain of receptor tyrosine kinase c-Met (P08581 25-1390): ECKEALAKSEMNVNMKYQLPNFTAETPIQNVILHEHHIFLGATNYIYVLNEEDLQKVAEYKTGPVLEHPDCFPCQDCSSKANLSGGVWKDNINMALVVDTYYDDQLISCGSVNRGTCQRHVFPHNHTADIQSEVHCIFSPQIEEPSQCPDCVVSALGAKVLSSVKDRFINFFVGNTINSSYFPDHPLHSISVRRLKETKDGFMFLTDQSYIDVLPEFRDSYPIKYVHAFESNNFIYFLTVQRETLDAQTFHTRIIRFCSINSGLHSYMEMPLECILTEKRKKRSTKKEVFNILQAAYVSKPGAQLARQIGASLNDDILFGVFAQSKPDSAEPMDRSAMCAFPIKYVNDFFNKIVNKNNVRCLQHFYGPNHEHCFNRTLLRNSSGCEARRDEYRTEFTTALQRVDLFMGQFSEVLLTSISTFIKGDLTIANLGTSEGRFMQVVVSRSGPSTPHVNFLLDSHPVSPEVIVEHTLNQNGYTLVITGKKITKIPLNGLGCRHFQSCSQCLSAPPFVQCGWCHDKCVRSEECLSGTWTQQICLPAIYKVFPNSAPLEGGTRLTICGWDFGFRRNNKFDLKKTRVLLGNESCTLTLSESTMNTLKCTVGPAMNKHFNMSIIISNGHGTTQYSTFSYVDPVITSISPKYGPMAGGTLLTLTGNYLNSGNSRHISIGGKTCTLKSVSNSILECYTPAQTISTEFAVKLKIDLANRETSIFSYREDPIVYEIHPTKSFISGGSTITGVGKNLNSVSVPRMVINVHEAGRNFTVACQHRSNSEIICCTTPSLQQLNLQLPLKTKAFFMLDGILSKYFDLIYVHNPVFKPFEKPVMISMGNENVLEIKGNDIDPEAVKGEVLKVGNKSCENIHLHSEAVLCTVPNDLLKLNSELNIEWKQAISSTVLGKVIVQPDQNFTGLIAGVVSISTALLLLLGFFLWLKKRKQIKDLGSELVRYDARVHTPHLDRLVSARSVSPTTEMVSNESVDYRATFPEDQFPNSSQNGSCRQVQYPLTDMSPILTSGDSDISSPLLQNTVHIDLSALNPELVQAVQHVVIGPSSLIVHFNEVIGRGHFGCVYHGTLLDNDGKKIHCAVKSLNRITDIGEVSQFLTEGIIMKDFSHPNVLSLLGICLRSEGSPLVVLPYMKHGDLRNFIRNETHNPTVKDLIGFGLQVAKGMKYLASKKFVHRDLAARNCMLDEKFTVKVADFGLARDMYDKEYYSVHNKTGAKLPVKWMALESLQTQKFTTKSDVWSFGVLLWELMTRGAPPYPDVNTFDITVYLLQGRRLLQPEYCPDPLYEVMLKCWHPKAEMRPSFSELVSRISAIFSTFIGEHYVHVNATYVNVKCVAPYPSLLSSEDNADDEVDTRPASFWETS

inhibition at 0.001 µM [1] | inhibition at 0.01 µM [1] | inhibition at 0.1 µM [1] | c-Met Inhibitory rate (%) ([2]; 1 nM, 0.001 µM) | inhibition at 0.001 µM ([2]; 1 nM) | c-Met Inhibitory rate (%) ([2]; 10 nM, 0.01 µM) | inhibition at 0.01 µM ([2]; 10 nM) | c-Met Inhibitory rate (%) ([2]; 100 nM, 0.1 µM) | inhibition at 0.1 µM ([2]; 100 nM) | Structure (SMILES) | BaF3/TEL-AXL proliferation Inhibitory rate (%) [3, 4] | BaF3/TEL-AXL proliferation Inhibitory rate (%) [3, 5] | BaF3/TEL-AXL proliferation Inhibitory rate (%) [3, 6] | inhibition at 0.001 µM [3, 7] | inhibition at 0.01 µM [3, 8] | inhibition at 0.1 µM [3, 9] | inhibition at 0.001 µM ([3]; concentration of 1 nM, read-out: inhibited the proliferation of BaF3/TEL-AXL cells)
11.5% | 60.5% | 91.8% | 32.4% | 17.7% | 56.2% | 46.4% | 99.2% | 94.8% | O=C(Nc1ccc(Oc2ncnc3cc4c(cc23)OCCOCCOCCO4)c(F)c1)c1c2n(n(-c3cc(F)ccc3F)c1=O)CCCC2 [DC621063, 1-(2,5-difluorophenyl)-N-(3-fluoro-4-((7,8,10,11,13,14-hexahydro-[1,4,7,10]tetraoxacyclododecane[2,3-g]quinazolin-4-yl)oxy)phenyl)-2-oxo-1,2,4,5,6,7-hexahydropyrazolo[1,5-a]pyridine-3-formamide] | 61.0% | 66.0% | 78.2% | 47.8% | 67.2% | 82.3% | –
12.2% | 58.2% | 95.9% | 60.0% | 61.1% | 48.9% and 69.6% | – | 100% | 94.1% | COCCOc1cc2ncnc(Oc3ccc(NC(=O)c4c5n(n(-c6cc(F)ccc6F)c4=O)CCCC5)c(F)c3)c2cc1OCCOC [DC621054, 1-(2,5-difluorophenyl)-N-(4-((6,7-bis(2-methoxyethoxy)quinazolin-4-yl)oxy)-2-fluorophenyl)-2-oxo-1,2,4,5,6,7-hexahydropyrazolo[1,5-a]pyridine-3-formamide] | 81.8% | 82.5% | 86.1% | 79.6% | 82.8% | 84.7% | –
8.2% | 54.2% | 100% | 55.2% | 39.5% | 75.9% | 62.4% | 97.5% | 93.9% | COCCOc1cc2ncnc(Oc3ccc(NC(=O)c4c5n(n(-c6ccccc6)c4=O)CCCC5)c(F)c3)c2cc1OCCOC [DC621051, N-(4-((6,7-bis(2-methoxyethoxy)quinazolin-4-yl)oxy)-2-fluorophenyl)-2-oxo-1-phenyl-1,2,4,5,6,7-hexahydropyrazolo[1,5-a]pyridine-3-formamide] | 82.9% | 85.9% | 86.6% | 84.7% | 85.8% | 86.7% | > 70%
16% | 55.1% | 91.9% | 51.3% | 34% | 64.0% | 55.2% | 95.9% | 94.6% | COCCOc1cc2ncnc(Oc3ccc(NC(=O)c4c5n(n(-c6ccccc6F)c4=O)CCCC5)c(F)c3)c2cc1OCCOC [DC621057, N-(4-((6,7-bis(2-methoxyethoxy)quinazolin-4-yl)oxy)-2-fluorophenyl)-1-(2-fluorophenyl)-2-oxo-1,2,4,5,6,7-hexahydropyrazolo[1,5-a]pyridine-3-formamide] | 76.6% | – | 86.0% | 69.5% | 83.2% | 87.5% | –
